Laboratory results as given in patent publication US7166299B2, “Preparation of aqueous clear solution dosage forms with bile acids” (priority 1998, dated 2007).
Values joined by “and” are separate entries in the source; they are usually repeats but may differ in a detail not shown here. Equal values may be shown once.

Test: Solution stability test (HPLC) of UDCA, branched chained amino acids and maltodextrin solution, Example IV
Type: physicochemical
Procedure: The stability tests were conducted on three different aqueous solution systems: […]. A bile acid and a high molecular weight aqueous soluble starch conversion product were combined in aqueous solution according to Example I, with results as shown in Tables 1A and 1B. • 2. Mixed bile acids and high molecular weight aqueous soluble starch conversion products were combined in aqueous solution according to Example II, with results as shown in Table 2. • 3. Bile acids, high molecular weight aqueous soluble starch conversion products and branched chained amino acids (e.g. leucine, isoleucine, valine, or other amino acid with a branched side chain) were combined in aqueous solution according to Example IV, with results as shown in Tables 3A through 3F. The stability tests were performed with HPLC and microscope light at various pH conditions under the normal and accelerated conditions. Accelerated conditions for testing pharmaceutical compositions have been described (Remington, The Science and Practice of Pharmacy, 19th ed., p. 640). […] Thus, the formulations of the examples are suitable for preparing a commercial liquid dosage form. […] Some formulations remain stable for over 2 years. Moreover, the solution stability tests were conducted on the aqueous solution dosage forms comprising the mixture of aqueous soluble UDCA, branched chained amino acid (leucine, isoleucine, valine) and maltodextrin according to example IV as a typical example of the solution dosage forms in which bile acid as a therapeutically active agent, as an adjuvant or carrier, pharmaceutically active agent, or enhancer of solubility, and high molecular weight aqueous soluble starch conversion products or soluble non-starch polysaccharides are dissolved. According to the test results, there is no discoloration, no clarity changes, and no precipitation. […] In the tables, the concentration of the indicated bile acid salt for each of the three numbered trials and the average thereof is reported on each line. The percentage indicates the relative concentration of the bile acid salt after incubation for a certain amount of time in comparison with the initial concentration. 85 mL of the aqueous solution in which soluble UDCA is dissolved was prepared, and then maltodextrin was added into the clear solution. Into the resulting clear solution, branched amino acids were added with adjusting the pH (4–7) with agitation and then sweetener, preservatives, and flavoring agent were added. Purified water was added to adjust the total volume to be 100 mL. Tables 3A to 3F show stability test results over time of formulation prepared with amino acids according to Example IV. All stability tests were conducted at 50° C. Stability test results at pH 1 (Table 3A), pH 3 (Table 3B), pH 5 (Table 3C), pH 7 (Table 3D), pH 9 (Table 3E), and pH 10 (Table 3F) are shown.

Percentage of day 0 concentration (Table 3A: pH1, 50° C., day 0): 100.0%
concentration by HPLC, Average (Table 3A: pH1, 50° C., day 0): 0.248
concentration by HPLC, trials #1-#3 (Table 3A: pH1, 50° C., day 0): 0.261 and 0.236 and 0.249
Percentage of day 0 concentration (Table 3A: pH1, 50° C., day 1): 105.0%
concentration by HPLC, Average (Table 3A: pH1, 50° C., day 1): 0.261
concentration by HPLC, trials #1-#3 (Table 3A: pH1, 50° C., day 1): 0.256 and 0.275 and 0.251
Percentage of day 0 concentration (Table 3A: pH1, 50° C., day 2): 104.9%
concentration by HPLC, Average (Table 3A: pH1, 50° C., day 2): 0.260
concentration by HPLC, trials #1-#3 (Table 3A: pH1, 50° C., day 2): 0.268 and 0.263 and 0.251
Percentage of day 0 concentration (Table 3A: pH1, 50° C., day 6): 114.6%
concentration by HPLC, Average (Table 3A: pH1, 50° C., day 6): 0.285
concentration by HPLC, trials #1-#3 (Table 3A: pH1, 50° C., day 6): 0.295 and 0.268 and 0.291
Percentage of day 0 concentration (Table 3A: pH1, 50° C., day 7): 103.4%
concentration by HPLC, Average (Table 3A: pH1, 50° C., day 7): 0.257
concentration by HPLC, trials #1-#3 (Table 3A: pH1, 50° C., day 7): 0.249 and 0.254 and 0.267
Percentage of day 0 concentration (Table 3A: pH1, 50° C., day 8): 98.8%
concentration by HPLC, Average (Table 3A: pH1, 50° C., day 8): 0.245
concentration by HPLC, trials #1-#3 (Table 3A: pH1, 50° C., day 8): 0.253 and 0.243 and 0.240
Percentage of day 0 concentration (Table 3A: pH1, 50° C., day 9): 106.6%
concentration by HPLC, Average (Table 3A: pH1, 50° C., day 9): 0.265
concentration by HPLC, trials #1-#3 (Table 3A: pH1, 50° C., day 9): 0.263 and 0.268
Percentage of day 0 concentration (Table 3B: pH 3, 50° C., day 0): 100.0%
concentration by HPLC, Average (Table 3B: pH 3, 50° C., day 0): 0.256
concentration by HPLC, trials #1-#3 (Table 3B: pH 3, 50° C., day 0): 0.261 and 0.254 and 0.253
Percentage of day 0 concentration (Table 3B: pH 3, 50° C., day 1): 103.3%
concentration by HPLC, Average (Table 3B: pH 3, 50° C., day 1): 0.265
concentration by HPLC, trials #1-#3 (Table 3B: pH 3, 50° C., day 1): 0.266 and 0.268 and 0.261
Percentage of day 0 concentration (Table 3B: pH 3, 50° C., day 2): 99.3%
concentration by HPLC, Average (Table 3B: pH 3, 50° C., day 2): 0.254
concentration by HPLC, trials #1-#3 (Table 3B: pH 3, 50° C., day 2): 0.273 and 0.243 and 0.247
Percentage of day 0 concentration (Table 3B: pH 3, 50° C., day 6): 117.4%
concentration by HPLC, Average (Table 3B: pH 3, 50° C., day 6): 0.301
concentration by HPLC, trials #1-#3 (Table 3B: pH 3, 50° C., day 6): 0.296 and 0.306 and 0.300
Percentage of day 0 concentration (Table 3B: pH 3, 50° C., day 7): 100.0%
concentration by HPLC, Average (Table 3B: pH 3, 50° C., day 7): 0.256
concentration by HPLC, trials #1-#3 (Table 3B: pH 3, 50° C., day 7): 0.247 and 0.265 and 0.257
Percentage of day 0 concentration (Table 3B: pH 3, 50° C., day 8): 96.7%
concentration by HPLC, Average (Table 3B: pH 3, 50° C., day 8): 0.248
concentration by HPLC, trials #1-#3 (Table 3B: pH 3, 50° C., day 8): 0.250 and 0.247
Percentage of day 0 concentration (Table 3B: pH 3, 50° C., day 13): 100.9%
concentration by HPLC, Average (Table 3B: pH 3, 50° C., day 13): 0.258
concentration by HPLC, trials #1-#3 (Table 3B: pH 3, 50° C., day 13): 0.285 and 0.240 and 0.250
Percentage of day 0 concentration (Table 3C: pH 5, 50° C., day 0): 100.0%
concentration by HPLC, Average (Table 3C: pH 5, 50° C., day 0): 0.279
concentration by HPLC, trials #1-#3 (Table 3C: pH 5, 50° C., day 0): 0.285 and 0.258 and 0.295
Percentage of day 0 concentration (Table 3C: pH 5, 50° C., day 3): 99.0%
concentration by HPLC, Average (Table 3C: pH 5, 50° C., day 3): 0.277
concentration by HPLC, trials #1-#3 (Table 3C: pH 5, 50° C., day 3): 0.280 and 0.275
Percentage of day 0 concentration (Table 3C: pH 5, 50° C., day 6): 98.7%
concentration by HPLC, Average (Table 3C: pH 5, 50° C., day 6): 0.276
concentration by HPLC, trials #1-#3 (Table 3C: pH 5, 50° C., day 6): 0.285 and 0.273 and 0.270
Percentage of day 0 concentration (Table 3C: pH 5, 50° C., day 10): 98.4%
concentration by HPLC, Average (Table 3C: pH 5, 50° C., day 10): 0.275
concentration by HPLC, trials #1-#3 (Table 3C: pH 5, 50° C., day 10): 0.274 and 0.276
Percentage of day 0 concentration (Table 3C: pH 5, 50° C., day 13): 100.0%
concentration by HPLC, Average (Table 3C: pH 5, 50° C., day 13): 0.279
concentration by HPLC, trials #1-#3 (Table 3C: pH 5, 50° C., day 13): 0.273 and 0.287 and 0.278
Percentage of day 0 concentration (Table 3C: pH 5, 50° C., day 17): 98.3%
concentration by HPLC, Average (Table 3C: pH 5, 50° C., day 17): 0.275
concentration by HPLC, trials #1-#3 (Table 3C: pH 5, 50° C., day 17): 0.278 and 0.276 and 0.270
Percentage of day 0 concentration (Table 3C: pH 5, 50° C., day 20): 95.0%
concentration by HPLC, Average (Table 3C: pH 5, 50° C., day 20): 0.266
concentration by HPLC, trials #1-#3 (Table 3C: pH 5, 50° C., day 20): 0.261 and 0.275
Percentage of day 0 concentration (Table 3C: pH 5, 50° C., day 24): 99.3%
concentration by HPLC, Average (Table 3C: pH 5, 50° C., day 24): 0.277
concentration by HPLC, trials #1-#3 (Table 3C: pH 5, 50° C., day 24): 0.267 and 0.274 and 0.292
Percentage of day 0 concentration (Table 3D: pH 7, 50° C., day 0): 100.0%
concentration by HPLC, Average (Table 3D: pH 7, 50° C., day 0): 0.289
concentration by HPLC, trials #1-#3 (Table 3D: pH 7, 50° C., day 0): 0.296 and 0.289 and 0.281
Percentage of day 0 concentration (Table 3D: pH 7, 50° C., day 5): 99.7%
concentration by HPLC, Average (Table 3D: pH 7, 50° C., day 5): 0.288
concentration by HPLC, trials #1-#3 (Table 3D: pH 7, 50° C., day 5): 0.300 and 0.282 and 0.281
Percentage of day 0 concentration (Table 3D: pH 7, 50° C., day 8): 95.5%
concentration by HPLC, Average (Table 3D: pH 7, 50° C., day 8): 0.276
concentration by HPLC, trials #1-#3 (Table 3D: pH 7, 50° C., day 8): 0.277 and 0.282 and 0.268
Percentage of day 0 concentration (Table 3D: pH 7, 50° C., day 12): 95.8%
concentration by HPLC, Average (Table 3D: pH 7, 50° C., day 12): 0.277
concentration by HPLC, trials #1-#3 (Table 3D: pH 7, 50° C., day 12): 0.273 and 0.278
Percentage of day 0 concentration (Table 3D: pH 7, 50° C., day 15): 93.5%
concentration by HPLC, Average (Table 3D: pH 7, 50° C., day 15): 0.270
concentration by HPLC, trials #1-#3 (Table 3D: pH 7, 50° C., day 15): 0.271 and 0.273 and 0.266
Percentage of day 0 concentration (Table 3D: pH 7, 50° C., day 19): 99.3%
concentration by HPLC, Average (Table 3D: pH 7, 50° C., day 19): 0.287
concentration by HPLC, trials #1-#3 (Table 3D: pH 7, 50° C., day 19): 0.294 and 0.285 and 0.281
Percentage of day 0 concentration (Table 3E: pH 9, 50° C., day 0): 100.0%
concentration by HPLC, Average (Table 3E: pH 9, 50° C., day 0): 0.286
concentration by HPLC, trials #1-#3 (Table 3E: pH 9, 50° C., day 0): 0.291 and 0.286 and 0.282
Percentage of day 0 concentration (Table 3E: pH 9, 50° C., day 3): 95.6%
concentration by HPLC, Average (Table 3E: pH 9, 50° C., day 3): 0.273
concentration by HPLC, trials #1-#3 (Table 3E: pH 9, 50° C., day 3): 0.266 and 0.273 and 0.282
Percentage of day 0 concentration (Table 3E: pH 9, 50° C., day 6): 95.9%
concentration by HPLC, Average (Table 3E: pH 9, 50° C., day 6): 0.274
concentration by HPLC, trials #1-#3 (Table 3E: pH 9, 50° C., day 6): 0.277 and 0.274 and 0.272
Percentage of day 0 concentration (Table 3E: pH 9, 50° C., day 10): 91.2%
concentration by HPLC, Average (Table 3E: pH 9, 50° C., day 10): 0.261
concentration by HPLC, trials #1-#3 (Table 3E: pH 9, 50° C., day 10): 0.243 and 0.245 and 0.295
Percentage of day 0 concentration (Table 3E: pH 9, 50° C., day 13): 87.4%
concentration by HPLC, Average (Table 3E: pH 9, 50° C., day 13): 0.250
concentration by HPLC, trials #1-#3 (Table 3E: pH 9, 50° C., day 13): 0.246 and 0.269 and 0.236
Percentage of day 0 concentration (Table 3E: pH 9, 50° C., day 17): 93.1%
concentration by HPLC, Average (Table 3E: pH 9, 50° C., day 17): 0.267
concentration by HPLC, trials #1-#3 (Table 3E: pH 9, 50° C., day 17): 0.275 and 0.280 and 0.245
Percentage of day 0 concentration (Table 3F: pH 10, 50° C., day 0): 100.0%
concentration by HPLC, Average (Table 3F: pH 10, 50° C., day 0): 0.287
concentration by HPLC, trials #1-#3 (Table 3F: pH 10, 50° C., day 0): 0.292
Percentage of day 0 concentration (Table 3F: pH 10, 50° C., day 2): 84.7%
concentration by HPLC, Average (Table 3F: pH 10, 50° C., day 2): 0.243
Percentage of day 0 concentration (Table 3F: pH 10, 50° C., day 5): 76.0%
concentration by HPLC, Average (Table 3F: pH 10, 50° C., day 5): 0.218
Percentage of day 0 concentration (Table 3F: pH 10, 50° C., day 7): 74.5%
concentration by HPLC, Average (Table 3F: pH 10, 50° C., day 7): 0.214
Percentage of day 0 concentration (Table 3F: pH 10, 50° C., day 9): 70.2%
concentration by HPLC, Average (Table 3F: pH 10, 50° C., day 9): 0.202
concentration by HPLC, trials #1-#3 (Table 3F: pH 10, 50° C., day 9): 0.206 and 0.192 and 0.207
Structure (SMILES): CC[C@H](C)[C@H](N)C(=O)O [Ile, isoleucine]
